According to PMC11790914, “Chemogenomics for steroid hormone receptors (NR3)” (Communications Chemistry, 2025):
Values joined by “and” are separate entries in the source; they are usually repeats but may differ in a detail not shown here. Equal entries are not always repeated.

What was measured:
HEK293T cells [1] = assay: Cytotoxicity: apoptosis induction (caspase-3/7 DEVD fluorogenic DNA dye); settings: 1 µM; HEK293T, 24 h; apoptotic cell count normalized to 0.1% DMSO; single replicates
CSNK1D = target: T1, CSNK1D (Homo sapiens, UniProt P48730); assay: Liability panel screening by DSF: CSNK1D; type: binding; settings: DSF, 20 µM, n=2; read-out: Mean ΔTM CSNK1D
T1 construct: made in house
T1 sequence (P48730 whole entry, species assumed): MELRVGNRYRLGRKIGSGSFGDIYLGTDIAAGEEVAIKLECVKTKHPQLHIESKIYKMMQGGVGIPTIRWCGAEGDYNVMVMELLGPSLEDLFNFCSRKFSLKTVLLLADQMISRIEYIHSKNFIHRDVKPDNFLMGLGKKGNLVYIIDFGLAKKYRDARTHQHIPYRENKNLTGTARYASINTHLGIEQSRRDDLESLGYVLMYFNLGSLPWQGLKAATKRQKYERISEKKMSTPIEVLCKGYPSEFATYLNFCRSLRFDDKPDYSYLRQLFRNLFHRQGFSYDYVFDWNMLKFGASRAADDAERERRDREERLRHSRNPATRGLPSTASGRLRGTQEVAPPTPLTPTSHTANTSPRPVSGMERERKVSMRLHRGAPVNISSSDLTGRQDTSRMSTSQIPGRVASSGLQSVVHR
How it was run: (§1)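 Recombinant protein at 2 µM in 10 mM HEPES pH 7.5 with 500 mM NaCl was mixed with SYPRO Orange (1:1000) and heated at 3 °C/min up to 85 °C. Tm was taken as the Boltzmann-fit inflection point. Shifts are ∆Tm in K from technical duplicates.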

[2] = system: NF-κB activity in HEK293 NF-κB reporter cells; assay: NF-kB activity assay (GFP reporter, ionomycin/PMA); type: cell-based; settings: for Mean NFκB response: n=3; for NF-κB activity (inflammatory response to ionomycin/PMA): HEK293 NF-κB reporter cells, compounds at recommended concentrations, imaged over 24 h, n = 3
How it was run: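 Reporter readout: GFP-expressing cells normalized to confluence, imaged every 90 min across 24 h after ionomycin (100 ng/mL)/PMA (10 ng/mL) stimulation of HEK293 cells pre-treated 4 h with compound (0.1% DMSO); triplicate independent experiments.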

AURKA = target: T2, AURKA (Homo sapiens, UniProt O14965); assay: Liability panel screening by DSF: AURKA; type: binding; settings: DSF, 20 µM, n=2; read-out: Mean ΔTM AURKA
T2 construct: made in house
T2 sequence (O14965 1-403): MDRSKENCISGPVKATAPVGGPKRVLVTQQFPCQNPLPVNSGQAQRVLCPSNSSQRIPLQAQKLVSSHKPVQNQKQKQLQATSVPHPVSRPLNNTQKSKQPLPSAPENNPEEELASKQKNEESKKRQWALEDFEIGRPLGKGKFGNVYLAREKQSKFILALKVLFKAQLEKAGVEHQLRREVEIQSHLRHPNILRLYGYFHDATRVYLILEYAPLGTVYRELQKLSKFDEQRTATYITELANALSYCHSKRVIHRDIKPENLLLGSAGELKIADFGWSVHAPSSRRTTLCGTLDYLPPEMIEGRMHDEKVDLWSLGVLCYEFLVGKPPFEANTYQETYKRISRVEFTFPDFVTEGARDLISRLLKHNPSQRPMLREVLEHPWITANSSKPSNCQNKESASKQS
How it was run: as §1

BRPF1 = target: T3, BRPF1 (Homo sapiens, UniProt P55201); assay: Liability panel screening by DSF: BRPF1; type: binding; settings: DSF, 20 µM, n=2; read-out: Mean ΔTM BRPF1
T3 construct: This panel comprised ten highly ligandable kinases and bromodomains; made in house
T3 sequence (P55201 628-732 limits assumed): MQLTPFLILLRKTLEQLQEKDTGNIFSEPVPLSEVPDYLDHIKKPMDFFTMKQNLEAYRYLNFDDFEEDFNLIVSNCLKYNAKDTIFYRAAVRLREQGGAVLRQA
How it was run: as §1

Gal4-VP16 = type: cell-based; settings: 1 µM; vs. DMSO ctrl; single replicates n=1-3
ABL1 = target: T4, ABL1 (Homo sapiens, UniProt P00519); assay: Liability panel screening by DSF: ABL1; type: binding; settings: DSF, 20 µM, n=2; read-out: Mean ΔTM ABL1
T4 construct: made in house
T4 sequence (P00519 whole entry, species assumed): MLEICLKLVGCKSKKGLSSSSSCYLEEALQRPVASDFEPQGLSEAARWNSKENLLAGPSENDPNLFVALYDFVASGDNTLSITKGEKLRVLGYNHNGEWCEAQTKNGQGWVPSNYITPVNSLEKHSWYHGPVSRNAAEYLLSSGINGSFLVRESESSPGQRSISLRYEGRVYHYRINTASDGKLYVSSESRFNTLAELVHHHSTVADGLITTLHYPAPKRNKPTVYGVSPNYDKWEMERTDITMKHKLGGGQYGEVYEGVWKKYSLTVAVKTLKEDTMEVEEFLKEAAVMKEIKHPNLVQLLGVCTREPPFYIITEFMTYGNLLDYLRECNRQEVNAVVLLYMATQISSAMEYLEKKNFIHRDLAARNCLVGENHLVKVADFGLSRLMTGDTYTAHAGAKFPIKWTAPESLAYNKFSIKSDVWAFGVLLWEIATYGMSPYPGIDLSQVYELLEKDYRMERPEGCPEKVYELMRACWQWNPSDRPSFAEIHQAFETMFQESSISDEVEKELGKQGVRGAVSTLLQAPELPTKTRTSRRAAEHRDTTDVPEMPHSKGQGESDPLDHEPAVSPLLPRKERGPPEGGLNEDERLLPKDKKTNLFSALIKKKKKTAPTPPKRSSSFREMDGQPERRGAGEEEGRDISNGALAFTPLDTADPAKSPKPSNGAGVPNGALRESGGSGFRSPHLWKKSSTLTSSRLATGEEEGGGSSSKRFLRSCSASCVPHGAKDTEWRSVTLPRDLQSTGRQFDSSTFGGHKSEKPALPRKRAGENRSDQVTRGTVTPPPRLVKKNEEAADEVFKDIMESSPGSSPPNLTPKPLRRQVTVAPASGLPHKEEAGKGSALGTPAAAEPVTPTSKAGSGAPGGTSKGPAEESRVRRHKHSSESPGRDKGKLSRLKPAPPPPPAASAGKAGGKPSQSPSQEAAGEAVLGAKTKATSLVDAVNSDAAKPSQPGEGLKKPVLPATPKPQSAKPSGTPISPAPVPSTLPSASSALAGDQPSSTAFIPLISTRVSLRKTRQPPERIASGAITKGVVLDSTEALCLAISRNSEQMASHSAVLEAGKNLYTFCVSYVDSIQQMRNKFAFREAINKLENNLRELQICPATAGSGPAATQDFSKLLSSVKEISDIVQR
How it was run: as §1

MAPK1 = target: T5, MAPK1 (Homo sapiens, UniProt P28482); assay: Liability panel screening by DSF: MAPK1; type: binding; settings: DSF, 20 µM, n=2; read-out: Mean ΔTM MAPK1
T5 construct: made in house
T5 sequence (P28482 whole entry, species assumed): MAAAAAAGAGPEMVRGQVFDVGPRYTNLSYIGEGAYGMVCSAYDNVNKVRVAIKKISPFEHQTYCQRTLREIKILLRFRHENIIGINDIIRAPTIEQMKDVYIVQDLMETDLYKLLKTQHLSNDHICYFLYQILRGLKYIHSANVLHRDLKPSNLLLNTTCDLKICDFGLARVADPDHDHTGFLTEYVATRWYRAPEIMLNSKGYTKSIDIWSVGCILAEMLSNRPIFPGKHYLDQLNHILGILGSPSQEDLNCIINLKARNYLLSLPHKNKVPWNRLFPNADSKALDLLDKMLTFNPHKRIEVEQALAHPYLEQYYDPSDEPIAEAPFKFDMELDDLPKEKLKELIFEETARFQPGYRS
How it was run: as §1

HEK293T cells [3] = assay: Cytotoxicity: necrosis induction (red fluorescent dye for permeable plasma membranes); type: cell-based; settings: 1 µM, 24 h, necrotic cell count normalized to 0.1% DMSO, single replicates;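 further: compounds applied in DMEM high glucose with 0.1% FCS and 0.1% DMSO, necrotic HEK293T cells counted by red staining of cells whose plasma membranes had become permeable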
CDK2 = target: T6, CDK2 (Homo sapiens, UniProt P24941); assay: Liability panel screening by DSF: CDK2; type: binding; settings: DSF, 20 µM, n=2; read-out: Mean ΔTM CDK2
T6 construct: made in house
How it was run: as §1

HEK293T cells [4] = assay: Cytotoxicity: metabolic activity (WST-8 / CCK-8 assay); settings: 1 µM; HEK293T, 24 h; WST-8; normalized to 0.1% DMSO; single replicates
HEK293T cells [5] = assay: Cytotoxicity: growth-rate (change in confluence over 24 h); settings: 1 µM, normalized to 0.1% DMSO control, single replicates (n=1...)
Description: Cells were incubated with the test compounds at the indicated concentrations solubilized with 0.1% DMSO for 24 h. Growth-rate was determined based on the change in confluence over 24 h normalized to the change in confluence of cells treated with the 0.1% DMSO control (n = 10). Metabolic activity was determined with a water-soluble tetrazolium-8 (WST-8) assay (n = 8) after 24 h treatment. Apoptotic cells were detected with a fluorogenic DNA dye coupled to the caspase-3/7 recognition sequence (DEVD) after 24 h treatment and the apoptotic cell count was normalized to 0.1% DMSO treated cells (n = 6).
HEK293T cells (German Collection of Microorganisms and Cell Culture GmbH, DSMZ; #ACC305) were cultured in DMEM high glucose, supplemented with 10% fetal calf serum (FCS), sodium pyruvate (1 mM), penicillin (100 µ/mL) and streptomycin (100 µg/mL) at 37 °C and 5% (v/v) CO2, and seeded in pre-coated (10 µg/mL collagen G solution (Merck KgaA; #L7213) for 30 min at 37 °C) 96-well plates (2 × 10^5 cells per well). After 24 h, the cells were treated with the respective NR3 CG compound candidate at the recommended concentration, bexarotene (100 µM) or doxorubicin (30 µM) as positive controls in DMEM high glucose supplemented with 0.1% FCS, penicillin (100 µ/mL), streptomycin (100 µg/mL) and 0.1% DMSO, or 0.1% DMSO alone as an untreated control. Each sample was prepared in at least four biologically independent replicates. […] Thereafter, the medium was aspirated and the cells were incubated for 3 h with 90 µL DMEM high glucose supplemented with 0.2% FCS, penicillin (100 µ/mL) and streptomycin (100 µg/mL) and additionally containing 10 µL Cell Counting Kit 8 solution (CCK-8; MedChemExpress, Monmouth Junction, New York, USA; #HY-K0301), and absorbance was measured at 1 h, 2 h and 3 h of incubation at 450 nm on a Tecan Spark Cyto to assess metabolic activity of the cells. Before drug administration, after the first medium exchange, 24 h after drug administration, and after fluorescence imaging cell confluence was assessed using the Tecan Spark Cyto, to account for changes in cell confluence due to drug administration and cell handling. Compound effects on cell confluence, apoptosis, metabolic activity and necrosis were normalized to the vehicle control of each biological replicate individually.

BRD4 = target: T7, BRD4 (Homo sapiens, UniProt O60885); assay: Liability panel screening by DSF: BRD4; type: binding; settings: DSF, 20 µM, n=2; read-out: Mean ΔTM BRD4
T7 construct: This panel comprised ten highly ligandable kinases and bromodomains; made in house
How it was run: as §1

[6] = system: ATF6 activity in Hela ATF6 reporter cells; assay: Endoplasmic reticulum stress assay (ATF6 Renilla luciferase reporter, tunicamycin); type: cell-based; settings: for ATF6 activity (tunicamycin-induced endoplasmic reticulum stress): Hela ATF6 reporter cells, tunicamycin 100 ng/mL, 18 h, compounds at recommended concentrations, n = 5; for activity at 1 µM: Homo sapiens, HeLa, single replicates n=1 to n=5, read-out: ER stress [rel. ATF6 activity]
How it was run: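 ER stress was induced by 100 ng/mL tunicamycin added 4 h after compound (0.1% DMSO) to HeLa ATF6 reporter cells. After 18 h more, Renilla luciferase signal was read and expressed relative to DMSO control, n=5 biological replicates.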

GSK3B = target: T8, GSK3B (Homo sapiens, UniProt P49841); assay: Liability panel screening by DSF: GSK3B; type: binding; settings: DSF, 20 µM, n=2; read-out: Mean ΔTM GSK3B
T8 construct: made in house
T8 sequence (P49841 whole entry, species assumed): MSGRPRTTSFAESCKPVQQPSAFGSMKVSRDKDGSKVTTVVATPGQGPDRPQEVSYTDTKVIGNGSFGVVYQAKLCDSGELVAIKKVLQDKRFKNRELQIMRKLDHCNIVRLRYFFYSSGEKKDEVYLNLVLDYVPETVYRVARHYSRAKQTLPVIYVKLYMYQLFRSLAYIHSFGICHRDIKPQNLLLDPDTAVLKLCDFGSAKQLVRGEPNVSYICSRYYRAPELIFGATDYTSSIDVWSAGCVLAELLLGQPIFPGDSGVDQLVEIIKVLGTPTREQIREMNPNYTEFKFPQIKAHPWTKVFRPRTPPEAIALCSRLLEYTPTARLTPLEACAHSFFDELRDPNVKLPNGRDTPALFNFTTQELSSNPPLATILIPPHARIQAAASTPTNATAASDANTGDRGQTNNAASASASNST

FGFR3 = target: T9, FGFR3 (Homo sapiens, UniProt P22607); assay: Liability panel screening by DSF: FGFR3; type: binding; settings: DSF, 20 µM, n=2; read-out: Mean ΔTM FGFR3
T9 construct: made in house
T9 sequence (P22607 23-806, species assumed): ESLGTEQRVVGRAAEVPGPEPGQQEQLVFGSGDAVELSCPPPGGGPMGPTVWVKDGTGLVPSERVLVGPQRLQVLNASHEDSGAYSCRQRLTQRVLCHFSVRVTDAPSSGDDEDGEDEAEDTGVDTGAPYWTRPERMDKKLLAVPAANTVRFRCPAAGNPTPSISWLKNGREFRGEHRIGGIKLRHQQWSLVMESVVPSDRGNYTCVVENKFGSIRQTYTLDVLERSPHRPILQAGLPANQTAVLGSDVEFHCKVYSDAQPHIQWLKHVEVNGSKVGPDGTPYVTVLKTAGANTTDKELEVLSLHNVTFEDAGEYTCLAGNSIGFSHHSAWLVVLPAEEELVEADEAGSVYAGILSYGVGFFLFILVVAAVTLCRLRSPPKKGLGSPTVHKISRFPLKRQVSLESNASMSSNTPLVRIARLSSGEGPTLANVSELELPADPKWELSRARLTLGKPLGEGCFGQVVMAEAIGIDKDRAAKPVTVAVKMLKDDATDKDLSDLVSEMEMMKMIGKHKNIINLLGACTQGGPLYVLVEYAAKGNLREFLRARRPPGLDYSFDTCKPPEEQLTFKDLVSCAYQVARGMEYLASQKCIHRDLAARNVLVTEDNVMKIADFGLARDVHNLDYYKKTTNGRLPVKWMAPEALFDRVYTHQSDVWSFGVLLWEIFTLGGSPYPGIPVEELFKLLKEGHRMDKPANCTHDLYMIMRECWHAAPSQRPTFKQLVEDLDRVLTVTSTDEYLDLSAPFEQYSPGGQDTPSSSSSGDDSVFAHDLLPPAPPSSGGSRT
How it was run: as §1

TRIM24 = target: T10, TRIM24 (Homo sapiens, UniProt O15164); assay: Liability panel screening by DSF: TRIM24; type: binding; settings: DSF, 20 µM, n=2; read-out: Mean ΔTM TRIM24
T10 construct: This panel comprised ten highly ligandable kinases and bromodomains; made in house
T10 sequence (O15164 899-1004 limits assumed): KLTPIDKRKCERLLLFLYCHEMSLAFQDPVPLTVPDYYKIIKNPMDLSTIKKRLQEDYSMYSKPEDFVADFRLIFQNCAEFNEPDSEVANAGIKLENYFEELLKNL
How it was run: as §1

NR3C1 (GR) = settings: (lit.); ref Supplementary Table 1; read-out: Potency [nM] EC50, NR3C1 (GR); cited from earlier work

COc1cccc([C@@H](Oc2ccc3c(cnn3-c3ccc(F)cc3)c2)[C@H](C)NC(=O)C(F)(F)F)c1 [AZD5423]
Apoptosis induction [AI] (HEK293T cells [1]): 0.73 and 0.76 and 0.75 and 0.81 and 1.24 and 2.34
ΔTm at 20 µM (CSNK1D): -5.6 °C
Mean NFκB response ([2]; 1 µM, 1,5 h): 2076.25 GFP+-cells/confluence ∙ 1000
Mean NFκB response ([2]; 1 µM, 4,5 h): 2908.84 GFP+-cells/confluence ∙ 1000
Mean NFκB response ([2]; 1 µM, 7,5 h): 5573.87 GFP+-cells/confluence ∙ 1000
Mean NFκB response ([2]; 1 µM, 10,5 h): 12373.33 GFP+-cells/confluence ∙ 1000
Mean NFκB response ([2]; 1 µM, 13,5 h): 17196.67 GFP+-cells/confluence ∙ 1000
Mean NFκB response ([2]; 1 µM, 16,6 h): 21116.67 GFP+-cells/confluence ∙ 1000
Mean NFκB response ([2]; 1 µM, 19,5 h): 24016.67 GFP+-cells/confluence ∙ 1000
Mean NFκB response ([2]; 1 µM, 22,5 h): 27100.00 GFP+-cells/confluence ∙ 1000
Mean NFκB response ([2]; 1 µM, 3 h): 2386.46 GFP+-cells/confluence ∙ 1000
Mean NFκB response ([2]; 1 µM, 6 h): 3758.89 GFP+-cells/confluence ∙ 1000
Mean NFκB response ([2]; 1 µM, 9 h): 9073.33 GFP+-cells/confluence ∙ 1000
Mean NFκB response ([2]; 1 µM, 12 h): 14943.33 GFP+-cells/confluence ∙ 1000
Mean NFκB response ([2]; 1 µM, 15 h): 19223.33 GFP+-cells/confluence ∙ 1000
Mean NFκB response ([2]; 1 µM, 18 h): 22723.33 GFP+-cells/confluence ∙ 1000
Mean NFκB response ([2]; 1 µM, 21 h): 25420.00 GFP+-cells/confluence ∙ 1000
Mean NFκB response ([2]; 1 µM, 24 h): 27183.33 GFP+-cells/confluence ∙ 1000
NF-κB activity (inflammatory response to ionomycin/PMA) [2]: consistently delayed and strongly diminished NF-κB activity
ΔTm at 20 µM (AURKA): -3.28 °C
ΔTm at 20 µM (BRPF1): -0.79 °C
VP16 control [fold reporter gene activity] (Gal4-VP16): 0.65 fold reporter gene activity and 0.98 fold reporter gene activity and 1.07 fold reporter gene activity
ΔTm at 20 µM (ABL1): -0.84 °C
ΔTm at 20 µM (MAPK1): -5.37 °C
Necrosis induction [NI] (HEK293T cells [3]): 0.69 and 0.73 and 0.65 and 0.80
ΔTm at 20 µM (CDK2): -0.35 °C
Metabolic activity [MA] (HEK293T cells [4]): 1.02 and 1.00 and 0.98 and 1.07 and 1.09 and 0.99 and 1.14 and 1.15
Growth rate [GR] (HEK293T cells [5]): 0.81 and 2.24 and 0.71 and 1.01 and 0.62 and 1.06 and 0.88 and 0.60 and 1.03 and 2.44
ΔTm at 20 µM (BRD4): -1.37 °C
ATF6 activity (tunicamycin-induced endoplasmic reticulum stress) [6]: Consistently weaker ATF6 activity
activity at 1 µM [6]: 84%
ΔTm at 20 µM (GSK3B): 0.67 °C
ΔTm at 20 µM (FGFR3): -1.62 °C
ΔTm at 20 µM (TRIM24): -2.31 °C
EC50 (NR3C1 (GR)): 0.9 ± 0.2 nM

C[C@H]1C[C@H]2[C@@H]3CCC4=CC(=O)C=C[C@]4(C)[C@@]3(Cl)[C@@H](O)C[C@]2(C)[C@@]1(O)C(=O)CO [Beclomethasone]
Apoptosis induction [AI] (HEK293T cells [1]): 0.38 and 0.63 and 0.67 and 0.78 and 0.69 and 1.03
ΔTm at 20 µM (CSNK1D): -0.04 °C
Mean NFκB response ([2]; 1 µM, 1,5 h): 2314.11 GFP+-cells/confluence ∙ 1000
Mean NFκB response ([2]; 1 µM, 4,5 h): 2712.93 GFP+-cells/confluence ∙ 1000
Mean NFκB response ([2]; 1 µM, 7,5 h): 3902.54 GFP+-cells/confluence ∙ 1000
Mean NFκB response ([2]; 1 µM, 10,5 h): 7904.68 GFP+-cells/confluence ∙ 1000
Mean NFκB response ([2]; 1 µM, 13,5 h): 11292.34 GFP+-cells/confluence ∙ 1000
Mean NFκB response ([2]; 1 µM, 16,6 h): 14142.72 GFP+-cells/confluence ∙ 1000
Mean NFκB response ([2]; 1 µM, 19,5 h): 16024.63 GFP+-cells/confluence ∙ 1000
Mean NFκB response ([2]; 1 µM, 22,5 h): 18119.25 GFP+-cells/confluence ∙ 1000
Mean NFκB response ([2]; 1 µM, 3 h): 2367.97 GFP+-cells/confluence ∙ 1000
Mean NFκB response ([2]; 1 µM, 6 h): 3065.61 GFP+-cells/confluence ∙ 1000
Mean NFκB response ([2]; 1 µM, 9 h): 5609.44 GFP+-cells/confluence ∙ 1000
Mean NFκB response ([2]; 1 µM, 12 h): 9507.58 GFP+-cells/confluence ∙ 1000
Mean NFκB response ([2]; 1 µM, 15 h): 12732.70 GFP+-cells/confluence ∙ 1000
Mean NFκB response ([2]; 1 µM, 18 h): 14975.90 GFP+-cells/confluence ∙ 1000
Mean NFκB response ([2]; 1 µM, 21 h): 16981.30 GFP+-cells/confluence ∙ 1000
Mean NFκB response ([2]; 1 µM, 24 h): 19467.95 GFP+-cells/confluence ∙ 1000
NF-κB activity (inflammatory response to ionomycin/PMA) [2]: consistently delayed and strongly diminished NF-κB activity
ΔTm at 20 µM (AURKA): 0.03 °C
ΔTm at 20 µM (BRPF1): -0.66 °C
VP16 control [fold reporter gene activity] (Gal4-VP16): 1.09 fold reporter gene activity and 0.87 fold reporter gene activity and 0.97 fold reporter gene activity
ΔTm at 20 µM (ABL1): -0.27 °C
ΔTm at 20 µM (MAPK1): 0.36 °C
Necrosis induction [NI] (HEK293T cells [3]): 0.78 and 0.71 and 0.63 and 0.85
ΔTm at 20 µM (CDK2): -0.29 °C
Metabolic activity [MA] (HEK293T cells [4]): 1.06 and 1.03 (2×) and 0.92 and 0.98 (2×) and 1.01 and 1.10
Growth rate [GR] (HEK293T cells [5]): 0.71 and 0.34 and 0.95 and 1.09 and 0.91 and 1.08 and 0.81 and 0.17 and 2.51 and -0.30
ΔTm at 20 µM (BRD4): -0.57 °C
ATF6 activity (tunicamycin-induced endoplasmic reticulum stress) [6]: Consistently weaker ATF6 activity
activity at 1 µM [6]: 72%
ΔTm at 20 µM (GSK3B): -0.75 °C
ΔTm at 20 µM (FGFR3): -0.31 °C
ΔTm at 20 µM (TRIM24): -1.53 °C
EC50 (NR3C1 (GR)): 8 nM
